Experimental data from patent US20230036854A1, “HETEROCYCLIC SPIRO-COMPOUNDS AS AM2 RECEPTOR INHIBITORS” (THE UNIVERSITY OF SHEFFIELD, priority 2018, published 2023).

Target: T1, AM2 receptor (1321N1 cells transfected with CALCRL+RAMP3) (Homo sapiens, UniProt O60896+Q16602)
T1 construct: host or cells: 1321N1 cells
Assay: AM2 receptor inhibition, LANCE cAMP agonist-antagonist competition assay
Format: cell-based
Conditions: inhibition of AM induced cAMP activation, read-out: AM2 D2 protocol: pIC50 (converted)
Outline: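 1321N1 cells co-expressing CALCRL and RAMP3 (2500/well) were preincubated with compound for 30 min at room temperature, then stimulated with adrenomedullin at its EC50 dose for 15 min in HBSS/HEPES/BSA buffer, pH 7.4. cAMP was measured by LANCE TR-FRET and normalised to forskolin (100%) and vehicle (0%) controls.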

T1 sequence (Q16602 23-461): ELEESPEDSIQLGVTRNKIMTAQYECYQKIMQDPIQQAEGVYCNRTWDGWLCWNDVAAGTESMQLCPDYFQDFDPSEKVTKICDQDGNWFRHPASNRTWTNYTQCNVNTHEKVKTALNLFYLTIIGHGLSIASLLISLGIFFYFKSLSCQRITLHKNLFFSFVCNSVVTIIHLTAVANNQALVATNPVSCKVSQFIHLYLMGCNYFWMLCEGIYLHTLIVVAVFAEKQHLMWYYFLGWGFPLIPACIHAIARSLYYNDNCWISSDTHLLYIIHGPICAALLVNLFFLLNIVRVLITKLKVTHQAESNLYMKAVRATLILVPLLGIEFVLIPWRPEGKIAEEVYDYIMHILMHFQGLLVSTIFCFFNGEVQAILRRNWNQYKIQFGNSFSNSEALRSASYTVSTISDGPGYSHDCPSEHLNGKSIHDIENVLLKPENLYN
T1 sequence (O60896 24-148): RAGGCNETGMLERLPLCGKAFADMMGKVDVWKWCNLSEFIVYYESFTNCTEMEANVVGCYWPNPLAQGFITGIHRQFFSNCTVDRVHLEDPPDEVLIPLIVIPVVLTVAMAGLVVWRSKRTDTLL

| SMILES | IC50 |
| --- | --- |
| CNCc1ccccc1CN(CC(=O)Nc1ccc2c(c1)CC1(C2)C(=O)Nc2ncccc21)C(=O)C1(C)CCN(C(=O)c2ccccn2)CC1 (stereo not shown) [Example 15, 4-Methyl-N-(2-((methylamino)methyl)benzyl)-N-(2-oxo-2-((2′-oxo-1,1′,2′,3-tetrahydrospiro[indene-2,3′-pyrrolo[2,3-b]pyridin]-5-yl)amino)ethyl)-1-picolinoylpiperidine-4-carboxamide] | 0.759 nM |
| CCC1(C(=O)N(CC(=O)Nc2ccc3c(c2)C[C@@]2(C3)C(=O)Nc3ncccc32)Cc2ccccc2CNC)CCN(C(=O)N2CCC(F)(F)C2)CC1 [Example 108, (R)-1-(3,3-Difluoropyrrolidine-1-carbonyl)-4-ethyl-N-(2-((methylamino)methyl)benzyl)-N-(2-oxo-2-((2′-oxo-1,1′,2′,3-tetrahydrospiro[indene-2,3′-pyrrolo[2,3-b]pyridin]-5-yl)amino)ethyl)piperidine-4-carboxamide] | 24 nM |
| CNCc1ccccc1CN(CC(=O)Nc1ccc2c(c1)C[C@@]1(C2)C(=O)Nc2ncccc21)C(=O)C1(C)CCN(C(=O)C2CCNCC2)CC1 [Example 9, (R)-4-Methyl-N-(2-((methylamino)methyl)benzyl)-N-(2-oxo-2-((2′-oxo-1,1′,2′,3-tetrahydrospiro[indene-2,3′-pyrrolo[2,3-b]pyridin]-5-yl)amino)ethyl)-1-(piperidine-4-carbonyl)piperidine-4-carboxamide] | 5.13 nM |
| CNCc1ccccc1CN(CC(=O)Nc1ccc2c(c1)C[C@@]1(C2)C(=O)Nc2ncccc21)C(=O)C1(C)CCN(C)CC1 [Example 36, (R)-1,4-Dimethyl-N-(2-((methylamino)methyl)benzyl)-N-(2-oxo-2-((2′-oxo-1,1′,2′,3-tetrahydrospiro[indene-2,3′-pyrrolo[2,3-b]pyridin]-5-yl)amino)ethyl)piperidine-4-carboxamide] | 1.82 nM |
| CNCc1ccccc1CN(CC(=O)Nc1ccc2c(c1)C[C@@]1(C2)C(=O)Nc2ncccc21)C(=O)C1(C(C)C)CCN(C(C)=O)CC1 [Example 123, (R)-1-Acetyl-4-isopropyl-N-(2-((methylamino)methyl)benzyl)-N-(2-oxo-2-((2′-oxo-1,1′,2′,3-tetrahydrospiro[indene-2,3′-pyrrolo[2,3-b]pyridin]-5-yl)amino)ethyl)piperidine-4-carboxamide] | 214 nM |
| CCC1(C(=O)N(CC(=O)Nc2ccc3c(c2)C[C@@]2(C3)C(=O)Nc3ncccc32)Cc2ccccc2CNC)CCN(C(=O)N2CC(F)C2)CC1 [Example 111, (R)-4-Ethyl-1-(3-fluoroazetidine-1-carbonyl)-N-(2-((methylamino)methyl)benzyl)-N-(2-oxo-2-((2′-oxo-1,1′,2′,3-tetrahydrospiro[indene-2,3′-pyrrolo[2,3-b]pyridin]-5-yl)amino)ethyl)piperidine-4-carboxamide] | 15.5 nM |
| CCC1(C(=O)N(CC(=O)Nc2ccc3c(c2)C[C@@]2(C3)C(=O)Nc3ncccc32)Cc2ccccc2CNC)CCN(C(=O)N2CCC(F)(F)CC2)CC1 [Example 107, (R)-1-(4,4-Difluoropiperidine-1-carbonyl)-4-ethyl-N-(2-((methylamino)methyl)benzyl)-N-(2-oxo-2-((2′-oxo-1,1′,2′,3-tetrahydrospiro[indene-2,3′-pyrrolo[2,3-b]pyridin]-5-yl)amino)ethyl)piperidine-4-carboxamide] | 57.5 nM |
| CNCc1ccccc1CN(CC(=O)Nc1ccc2c(c1)C[C@@]1(C2)C(=O)Nc2ncccc21)C(=O)C1(C)CCN(C(=O)CC2CCNCC2)CC1 [Example 7, (R)-4-Methyl-N-(2-((methylamino)methyl)benzyl)-N-(2-oxo-2-((2′-oxo-1,1′,2′,3-tetrahydrospiro[indene-2,3′-pyrrolo[2,3-b]pyridin]-5-yl)amino)ethyl)-1-(2-(piperidin-4-yl)acetyl)piperidine-4-carboxamide] | 4.07 nM |
| CCC1(C(=O)N(CC(=O)Nc2ccc3c(c2)C[C@@]2(C3)C(=O)Nc3ncccc32)Cc2ccccc2CNC)CCN(C(=O)C23CC(C2)C3)CC1 [Example 87] | 2.19 nM |
| CNCc1ccccc1CN(CC(=O)Nc1ccc2c(c1)C[C@@]1(C2)C(=O)Nc2ncccc21)C(=O)C1(C)CCN(C(C)=O)C1 (stereo partly drawn) [Example 143, Acetyl-3-methyl-N-(2-((methylamino)methyl)benzyl)-N-(2-oxo-2-(((R)-2′-oxo-1,1′,2′,3-tetrahydrospiro[indene-2,3′-pyrrolo[2,3-b]pyridin]-5-yl)amino)ethyl)pyrrolidine-3-carboxamide] | 51.3 nM |
| CNCc1ccccc1CN(CC(=O)Nc1ccc2c(c1)C[C@@]1(C2)C(=O)Nc2ncccc21)C(=O)C1(C)CCN(C(=O)Cc2ccncc2)CC1 [Example 13, (R)-4-Methyl-N-(2-((methylamino)methyl)benzyl)-N-(2-oxo-2-((2′-oxo-1,1′,2′,3-tetrahydrospiro[indene-2,3′-pyrrolo[2,3-b]pyridin]-5-yl)amino)ethyl)-1-(2-(pyridin-4-yl)acetyl)piperidine-4-carboxamide] | 15.5 nM |
| CNCc1ccccc1CN(CC(=O)Nc1ccc2c(c1)C[C@@]1(C2)C(=O)Nc2ncccc21)C(=O)C1(C)CCN(c2ccccc2)CC1 [Example 63, (R)-4-Methyl-N-(2-((methylamino)methyl)benzyl)-N-(2-oxo-2-((2′-oxo-1,1′,2′,3-tetrahydrospiro[indene-2,3′-pyrrolo[2,3-b]pyridin]-5-yl)amino)ethyl)-1-phenylpiperidine-4-carboxamide] | 14.5 nM |
| CCC1(C(=O)N(CC(=O)Nc2ccc3c(c2)C[C@@]2(C3)C(=O)Nc3ncccc32)Cc2ccccc2CNC)CCN(C(=O)OC(C)C)CC1 [Example 114, (R)-Isopropyl 4-ethyl-4-((2-((methylamino)methyl)benzyl)(2-oxo-2-((2′-oxo-1,1′,2′,3-tetrahydrospiro[indene-2,3′-pyrrolo[2,3-b]pyridin]-5-yl)amino)ethyl)carbamoyl)piperidine-1-carboxylate] | 69.2 nM |
| CNCc1ccccc1CN(CC(=O)Nc1ccc2c(c1)CC1(C2)C(=O)Nc2ncccc21)C(=O)C1(C)CCN(C(=O)c2cccnc2)CC1 (stereo not shown) [Example 14, 4-Methyl-N-(2-((methylamino)methyl)benzyl)-1-nicotinoyl-N-(2-oxo-2-((2′-oxo-1,1′,2′,3-tetrahydrospiro[indene-2,3′-pyrrolo[2,3-b]pyridin]-5-yl)amino)ethyl)piperidine-4-carboxamide] | 2 nM |
| CCC1(C(=O)N(CC(=O)Nc2ccc3c(c2)C[C@@]2(C3)C(=O)Nc3ncccc32)Cc2ccccc2CNC(C)C)CCN(C(C)=O)CC1 [Example 141, (R)-1-Acetyl-4-ethyl-N-(2-((isopropylamino)methyl)benzyl)-N-(2-oxo-2-((2′-oxo-1,1′,2′,3-tetrahydrospiro[indene-2,3′-pyrrolo[2,3-b]pyridin]-5-yl)amino)ethyl)piperidine-4-carboxamide] | 102 nM |
| CNCc1ccccc1CN(CC(=O)Nc1ccc2c(c1)CC1(C2)C(=O)Nc2ncccc21)C(=O)C1(C)CCN(CC(=O)O)CC1 (stereo not shown) [Example 45, 2-(4-Methyl-4-((2-((methylamino)methyl)benzyl)(2-oxo-2-((2′-oxo-1,1′,2′,3-tetrahydrospiro[indene-2,3′-pyrrolo[2,3-b]pyridin]-5-yl)amino)ethyl)carbamoyl)piperidin-1-yl)acetic Acid] | 2.34 nM |
| CC1(C(=O)N(CC(=O)Nc2ccc3c(c2)C[C@@]2(C3)C(=O)Nc3ncccc32)Cc2ccccc2CN)CCNCC1 [Example 131, (R)—N-(2-(Aminomethyl)benzyl)-4-methyl-N-(2-oxo-2-((2′-oxo-1,1′,2′,3-tetrahydrospiro[indene-2,3′-pyrrolo[2,3-b]pyridin]-5-yl)amino)ethyl)piperidine-4-carboxamide] | 302 nM |
| CNCc1ccccc1CN(CC(=O)Nc1ccc2c(c1)CC1(C2)C(=O)Nc2ncccc21)C(=O)C1(C)CCN(C(=O)C2CC2)CC1 (stereo not shown) [Example 20, 1-(Cyclopropanecarbonyl)-4-methyl-N-(2-((methylamino)methyl)benzyl)-N-(2-oxo-2-((2′-oxo-1,1′,2′,3-tetrahydrospiro[indene-2,3′-pyrrolo[2,3-b]pyridin]-5-yl)amino)ethyl)piperidine-4-carboxamide] | 4.27 nM |
| CC(=O)N1CCC(C)(C(=O)N(CC(=O)Nc2cc3c(cc2C)CC2(C3)C(=O)Nc3ncccc32)Cc2ccccc2CN)CC1 (stereo not shown) [Example 130, 1-Acetyl-N-(2-(aminomethyl)benzyl)-4-methyl-N-(2-((5-methyl-2′-oxo-1,1′,2′,3-tetrahydrospiro[indene-2,3′-pyrrolo[2,3-b]pyridin]-6-yl)amino)-2-oxoethyl)piperidine-4-carboxamide] | 69.2 nM |
| CNCc1ccccc1CN(CC(=O)Nc1ccc2c(c1)C[C@@]1(C2)C(=O)Nc2ncccc21)C(=O)C1(C)CCN(CCO)CC1 [Example 42, (R)-1-(2-Hydroxyethyl)-4-methyl-N-(2-((methylamino)methyl)benzyl)-N-(2-oxo-2-((2′-oxo-1,1′,2′,3-tetrahydrospiro[indene-2,3′-pyrrolo[2,3-b]pyridin]-5-yl)amino)ethyl)piperidine-4-carboxamide] | 6.46 nM |
| CCC1(C(=O)N(CC(=O)Nc2ccc3c(c2)C[C@@]2(C3)C(=O)Nc3ncccc32)Cc2ccccc2CNC)CCN(C(=O)[C@H](N)C(C)C)CC1 [Example 80, 1-((R)-2-Amino-3-methylbutanoyl)-4-ethyl-N-(2-((methylamino)methyl)benzyl)-N-(2-oxo-2-(((R)-2′-oxo-1,1′,2′,3-tetrahydrospiro[indene-2,3′-pyrrolo[2,3-b]pyridin]-5-yl)amino)ethyl)piperidine-4-carboxamide] | 57.5 nM |
| CCC1(C(=O)N(CC(=O)Nc2ccc3c(c2)C[C@@]2(C3)C(=O)Nc3ncccc32)Cc2ccccc2CNC)CCN(C(=O)c2ccc(F)cn2)CC1 [Example 76, (R)-4-Ethyl-1-(5-fluoropicolinoyl)-N-(2-((methylamino)methyl)benzyl)-N-(2-oxo-2-((2′-oxo-1,1′,2′,3-tetrahydrospiro[indene-2,3′-pyrrolo[2,3-b]pyridin]-5-yl)amino)ethyl)piperidine-4-carboxamide] | 37.2 nM |
